The values that follow come from patent US20240116897A1, “BENZOTHIAZOLE AND BENZIMIDAZOLE DERIVATIVES, PHARMACEUTICALLY ACCEPTABLE SALT THEREOF, PREPARATION METHOD THEREFOR, AND PHARMACEUTICAL COMPOSITION COMPRISING SAME AS ACTIVE INGREDIENT” (KOREA RESEARCH INSTITUTE OF CHEMICAL TECHNOLOGY, priority 2021, published 2024).

The target of this test is T1, SIRT7 protein (Homo sapiens, UniProt Q9NRC8).
T1 construct: purchased SignalChem S41-30H
T1 sequence (Q9NRC8 1-400): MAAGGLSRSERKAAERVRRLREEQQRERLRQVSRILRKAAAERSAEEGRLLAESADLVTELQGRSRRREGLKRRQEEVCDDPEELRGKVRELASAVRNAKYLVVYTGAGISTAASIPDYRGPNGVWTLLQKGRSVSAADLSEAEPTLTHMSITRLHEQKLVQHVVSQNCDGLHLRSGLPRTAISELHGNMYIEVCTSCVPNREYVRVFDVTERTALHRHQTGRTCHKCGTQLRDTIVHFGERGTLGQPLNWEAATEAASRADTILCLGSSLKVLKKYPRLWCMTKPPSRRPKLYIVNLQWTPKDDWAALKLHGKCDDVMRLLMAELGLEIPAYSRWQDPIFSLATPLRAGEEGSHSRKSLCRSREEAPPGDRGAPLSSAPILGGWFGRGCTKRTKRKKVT
Briefly: SIRT Glo assay, inhibitory activity against Sirt7. It counts as biochemical. As to conditions: 10 μM compound. As for the experimental part: Promega's Cat. No. 6450 SIRT Glo assay kit was used, and as the target SIRT7 protein, No. S41-30H protein of SignalChem's Cat. was used. Prepare the compound by diluting it in SIRT Glo buffer in advance to a concentration twice as thick as the final concentration. For the positive control group of white 384 well plate (Greiner Bioone, white, small volume, Cat. No. 874075), and for compound group, dilute sirt7 protein in SIRT Glo buffer and dispense by 5 μL to contain 20 ng per well. In the background control group, 10 μL of SIRT Glo buffer is dispensed.
After adding 5 μL of SIRT Glo buffer to the positive control group, and 5 μL of the diluted compound to the compound group, react for 30 minutes. After making the substrate provided in the SIRT Glo assay, adding 10 μL each, and reacting for 1 hour, the luciferase activity is measured with a microplate reader (Molecular Device, spectramax i3).
Subtract the luciferase level of the background control group in all wells. The % inhibition of the compound was used to obtain the compound's rate of inhibitory activity against sirt7 in the following:
% inhibition=100−(compound group/positive control group)×100.
In the case of `Cc1ccc(NC(=O)N2CCN(Cc3ccc(C(=O)Nc4nc5ccccc5s4)cc3)CC2)cc1` [Compound 1-51, 4-(4-(benzo[d]thiazol-2-ylcarbamoyl)benzyl)-N-(p-tolyl)piperazine-1-carboxamide], the inhibition (in general, the drop in the measured response relative to a control, in per cent) at 10 µM worked out at 90%. The same measure for `CCc1ccc(NC(=O)N2CCN(Cc3ccc(C(=O)Nc4nc5ccccc5s4)cc3)CC2)cc1` [Compound 1-52, 4-(4-(benzo[d]thiazol-2-ylcarbamoyl)benzyl)-N-(4-ethylphenyl)piperazine-1-carboxamide]: 85%. The same measure for `O=C(Nc1nc2ccccc2s1)c1ccc(CN2CCN(C(=O)NC3CCCCC3)CC2)cc1` [Compound 1-53, 4-(4-(benzo[d]thiazol-2-ylcarbamoyl)benzyl)-N-cyclohexylpiperazine-1-carboxamide]: 97%; for `O=C(Nc1nc2ccccc2s1)c1ccc(CN2CCN(C(=O)NCCl)CC2)cc1` [Compound 1-54, 4-(4-(benzo[d]thiazol-2-ylcarbamoyl)benzyl)-N-(chloromethyl)piperazine-1-carboxamide]: 100%. The same measure for `CCCNC(=O)N1CCN(Cc2ccc(C(=O)Nc3nc4ccccc4s3)cc2)CC1` [Compound 1-55, 4-(4-(benzo[d]thiazol-2-ylcarbamoyl)benzyl)-N-propylpiperazine-1-carboxamide]: 100%; for `CCOc1ccccc1NC(=O)N1CCN(Cc2ccc(C(=O)Nc3nc4ccccc4s3)cc2)CC1` [Compound 1-56, 4-(4-(benzo[d]thiazol-2-ylcarbamoyl)benzyl)-N-(2-ethoxyphenyl)piperazine-1-carboxamide]: 87%; for `CC(C)(C)CC(C)(C)NC(=O)N1CCN(Cc2ccc(C(=O)Nc3nc4ccccc4s3)cc2)CC1` [Compound 1-57, 4-(4-(benzo[d]thiazol-2-ylcarbamoyl)benzyl)-N-(2,4,4-trimethylpentan-2-yl)piperazine-1-carboxamide]: 12%. `O=C(Nc1nc2ccccc2s1)c1ccc(CN2CCN(C(=O)Nc3ccccc3Br)CC2)cc1` [Compound 1-58, 4-(4-(benzo[d]thiazol-2-ylcarbamoyl)benzyl)-N-(2-bromophenyl)piperazine-1-carboxamide] displayed an inhibition at 10 µM of 87%.

In turn, `CCC(=O)N1CCN(Cc2ccc(C(=O)Nc3nc4ccccc4s3)cc2)CC1` [Compound 1-59, N-(benzo[d]thiazol-2-yl)-4-((4-propionylpiperazin-1-yl)methyl)benzamide] returned an inhibition at 10 µM of 5%. In turn, `O=C(Nc1nc2ccccc2s1)c1ccc(CN2CCN(C(=O)c3ccccc3)CC2)cc1` [Compound 1-60, N-(benzo[d]thiazol-2-yl)-4-((4-benzoylpiperazin-1-yl)methyl)benzamide] returned an inhibition at 10 µM of 7%. The same measure for `CCN1CCN(Cc2ccc(C(=O)Nc3nc4ccccc4s3)cc2)CC1` [Compound 1-61, N-(benzo[d]thiazol-2-yl)-4-((4-ethylpiperazin-1-yl)methyl)benzamide]: 3%.

`O=C(Nc1nc2ccccc2s1)c1ccc(CN2CCN(Cc3ccccc3)CC2)cc1` [Compound 1-62, N-(benzo[d]thiazol-2-yl)-4-((4-benzylpiperazin-1-yl)methyl)benzamide]: 10 µM produced 7% inhibition.

As for `CC(C)(C)OC(=O)N1CCC(=Cc2ccc(C(=O)Nc3nc4ccccc4s3)cc2)CC1` [Compound 1-63, tert-butyl 4-(4-(benzo[d]thiazol-2-ylcarbamoyl)benzylidene)piperidine-1-carboxylate], testing at 10 µM gave an inhibition of 10%. The same measure for `CC(C)(C)OC(=O)N1CCC(Cc2ccc(C(=O)Nc3nc4ccccc4s3)cc2)CC1` [Compound 1-64, tert-butyl 4-(4-(benzol[d]thiazol-2-ylcarbamoyl)benzyl)piperidine-1-carboxylate]: 7%.

For `O=C(Nc1nc2ccccc2s1)c1ccc(C=C2CCNCC2)cc1` [Compound 1-65, N-(benzo[d]thiazol-2-yl)-4-(piperidin-4-ylidenemethyl)benzamide], at 10 µM the inhibition was 5%.
